Measurements as given in US5728686A, “Alkylxanthine phosphonates and alkylxanthine phosphine oxides and their use as pharmaceuticals” (Hoechst Aktiengesellschaft, priority 1996, dated 1998).
In brackets after ≈: the same amount, converted by molar mass.

Tests used:
[1] = test system: muscle group (gastrocnemius, plantaris and soleus) of the immobilized right rear extremity; experiment: rat muscle function test: direct electrical stimulation of muscle group after 3 weeks' immobilization; format: in vivo, male Wistar rats; conditions: isotonic stimulation; oral, 1x per day for 3 weeks, as a rule 25 mg/kg; control approx. -25%; ≤-12% classified as active
Summary of the method: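 Male Wistar rats (about 300 g) had the right hindlimb immobilized in a plastic cast for 3 weeks while dosed orally once daily, usually 25 mg/kg in carboxymethylcellulose. Under pentobarbital, the gastrocnemius/plantaris/soleus group was stimulated directly: isometric force (0.5N preload, 15 min) as area-under-curve, and isotonic work (body-weight preload, 15 min) in J; results as Δ% immobilized vs contralateral muscle.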

[2] = test system: Endotoxin (LPS) from Salmonella abortus equi; experiment: effect on endotoxin fatality (LPS-induced septic shock); format: in vivo, female NMRI mice; conditions: 25 mg/kg i.p. at the same time as LPS 60 mg/kg i.p.; 72 hours; vs placebo control
Procedure: 2. Test for effect on endotoxin fatality
Individual injections of lipopolysaccharide (LPS), from gram-negative bacteria, lead via a series of various symptoms to septic shock, which usually turns out to be fatal. Endotoxin (LPS) from Salmonella abortus equi in a dose of 60 mg/kg i.p. leads to shock and to death with at most 72 h p.a. (the dose of 60 mg/kg corresponds to approximately 1.20 mg of LPS/animal).
The experimental animals used are female NMRI mice from the Hoechst AG/Hattersheim animal breeding unit having a body weight of 22 to 24 g.
The test substances administered intraperitoneally (i.p.) in an administration volume of 10 ml/kg at the same time as the LPS. The number of surviving animals after 72 hours' LPS administration is indicated in comparison to a placebo control. The number of tested animals per group is 5; dose 25 mg/kg.

[3] = test system: isolated guinea pig lung strips, Platelet activating factor (PAF); experiment: antagonist of PAF-induced contraction of isolated guinea pig lung strips; format: cell-based; conditions: Cavia porcellus, read-out: Anticontractile action (lung), PAF: concentration range corresponding to the IC50 value
Summary of the method: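 Guinea pig lung strips, 3 mm wide, held at 4 g preload in modified Krebs-Henseleit at 37° C, gassed 95% O2/5% CO2, contracted by PAF or LTD4. Compound given cumulatively at 1, 3, 6 and 10 μg/ml; value is the concentration in μg/ml giving IC50-level effect.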

[4] = test system: isolated guinea pig lung strips, leukotriene D4 (LTD4); experiment: antagonist of LTD4-induced contraction of isolated guinea pig lung strips; format: cell-based; conditions: Cavia porcellus, read-out: Anticontractile action (lung), LTD4: concentration range corresponding to the IC50 value
Description: 4. Activity as an antagonist of the contraction of isolated guinea pig lung strips
The test carried out is based on the same principle as the test indicated in the pharmacological test 3; however, lung strips are used here.
Preparation of the organ sections and experimental procedure:
The guinea pig is sacrificed under laughing gas anaesthesia. The entire pulmonary tract is exposed starting from the trachea. The lobes of the lung are cut in a circular fashion such that 3 mm wide strips are formed. The strips of the upper lobes are divided in order to obtain a total of six approximately equal size strips. The strips are suspended in the organ baths under a preload of 4 g. The nutrient solutions used are modified Krebs Henseleit solutions. When using "Platelet activating factor" (PAF) as an […], the composition of this solution corresponds to that for the agonist SP in "Test 3"; for the agonist LTD4 a Krebs Henseleit solution as in the case of the agonist KCl (Test 3) is used. 95% by volume O2, 5% by volume CO2 is used for bubbling through the bath; the bath temperature is 37° C. The experimental procedure is carried out in a therapeutically cumulative methodology, using the dosage graduations 1, 3, 6 and 10 μg/ml.
The experimental animals, organ bath, vehicles and manner of administration correspond to that stated in pharmacological test 3.
All numerical values are indicated in the unit μg/ml and relate to the concentration range of tested compound of the formula I (see example numbers in Table 1) which is necessary in order to cause a contraction which corresponds to the IC50 value.

[5] = test system: phosphodiesterase III; experiment: inhibition of phosphodiesterase III activity; format: biochemical; conditions: at 100 μM
Procedure: 5. Inhibition of phosphodiesterase III activity
The test is carried out using phosphodiesterase from Boehringer Mannheim (Mannheim, Germany), Order No. 108 243 according to the method of T. SAEKI, I. SAITO, Biochem. Pharm. 46, No. 5, […], pages 833-839.
All numerical values are indicated in % inhibition of the enzyme activity at 100 μM of the corresponding compound of the formula I.

## CCOP(=O)(CCCn1cnc2c1c(=O)[nH]c(=O)n2C)OCC [Example 2, Diethyl [4-(3-methylxanthin-7-yl)propyl]phosphonate]
[1]
  Work (performed work, right/left difference): +5 Δ %
[2]
  Inhibition of mortality: 100%
[3]
  IC50: 3 to 6 µg/mL (≈ 8.71 to 17.4 µM)
[4]
  IC50: 3 to 6 µg/mL (≈ 8.71 to 17.4 µM)
[5]
  PDE III Inhibition: 65%
